# Measured values from patent publication US8623377B2, “Joint-homing peptides and uses thereof” (University of Maryland, Baltimore, priority 2011, dated 2014).
# Legend:
# HUVECs = experiment: Endothelial tube (tubule) formation on Matrigel with VEGF; format: cell-based, human; settings: VEGF 10 ng/mL, peptide 0-100 μg/mL
# Description: FIG. 4A: Draining lymph node leukocytes from arthritic rats were dye-tagged with PKH67 and injected i.v. into arthritic rats. One group of rats was left untreated, and the other groups were treated with ADK or NQR peptide. After 24 hours, the synovium-infiltrating cells (SICs) were harvested from the joints, subjected to cytospin, and analyzed by fluorescence microscopy (left). In parallel, another set of synovium-infiltrating cells were stained with PE-labeled anti-CD3 or anti-CD 11b/c+ antibody and analyzed by flow cytometry (right). FIG. 4B: HUVECs were cultured on Matrigel-coated wells for 24 hours in the presence of VEGF (10 ng/mL) and various concentrations (0-100 μg/mL) of NQR (left), ADK (center), and RGD (right) peptides. The branches of vessel-like tubes were counted. A reprensentative set of results is shown. *P<0.05, compared with the VEGF-alone control.
# HUVECs (1×10^4) were cultured in 80 μL/well of growth factor-reduced Matrigel (BD Biosciences) in a 96-well plate in 100 μL/well of F-12K medium (with no supplements). These cells were then treated for 20 h with VEGF (R&D Systems) in the presence or absence of different concentrations of peptides (NQR, ADK, or RGD). Tubule formation was observed under a microscope, quantitated, and photographed.
# [1] = test system: CD31-expressing endothelial cells from an arthritic rat joint; experiment: Binding of fluorescein-labeled peptide to CD31-expressing endothelial cells from arthritic rat joint; format: cell-based
# Description: FIG. 2A: Binding of specific phage encoding the peptide NQR or ADK to the vascular endothelium was visualized by immunohistochemical examination of the hind paw section of the rthritic rats using the anti-T7 phage antibody. The binding of phage was tested in the presence or absence of the corresponding synthetic peptide. BV, blood vessel, L, lumen. FIG. 2B: Arthritic rats were injected with specific phage (ADK phage, left; NQR phage, center; or RGD phage, right) in the presence or absence of the corresponding synthetic peptide, and the titer of the phage recovered from the synovial tissue was assessed. *P<0.01. FIG. 2C: CD31-expressing endothelial cells were isolated from arthritic rat joints (upper) or the liver (lower) and stained with DAPI (blue), FITC-labeled peptide NQR (green), or Alexa Fluor 594-labeled anti-rat CD31 antibody (red). Also shown is the staining overlay (merge) of green and red (yellow). The inset is an enlarged view of a single cell; original magnification, 20×. FIG. 2D: LPS-stimulated HUVECs were stained with DAPI and FITC-labeled peptide NQR and observed under a fluorescence microscope, original magnification, 100×. […]
# Akt = experiment: VEGF-induced signaling in HUVECs, Western blot p-Akt; format: cell-based, human; settings: peptide 10, 50, 100 μg/mL 1 h, then VEGF 10 ng/mL 20 min
# Text: FIG. 6A: HUVECs were stimulated with VEGF and treated with the indicated concentrations of peptides. Phosphorylated ERK1/2 and Akt, as well as total ERK1/2 and Akt, were detected by Western blot analysis. FIG. 6B: Thereafter, p-ERK1/2 and p-Akt were quantified by densitometry, normalized to total ERK1/2 (left) and Akt (right), respectively, and compared with cells in serum-free medium. The results of a representative experiment from a set of three independent experiments are shown. *P<0.05, compared with the positive control.
# HUVECs were grown in F-12K medium in the presence of endothelial cell growth supplement (ECGS) (BD Biosciences) and 15% FBS. Confluent cells were starved in basal medium (without ECGS and FBS) for 6 h. Then the cells were pretreated for 1 h with different concentrations (10, 50, and 100 μg/mL) of a peptide (NQR, ADK, or RGD) in fresh basal medium, followed by treatment with VEGF (10 ng/mL) for another 20 min. The conditional medium was discarded, and the cells were lysed using a lysis buffer containing protease inhibitors and phosphatase inhibitors. The cell lysate was then centrifuged, and the resulting supernatant was used for analysis of signaling molecules using specific antibodies to human pERK1/2, ERK1/2, pAkt, Akt, and GAPDH (Cell Signaling Technology) by Western blot analysis. The intensity of the bands in the gel was quantified by densitometry. The levels of p-ERK1/2 and p-Akt were normalized to total ERK1/2 and Akt, respectively, and compared with cells in serum-free medium.
sequence,measurement,setting,value
"CLDNQRPKC (Synthetic peptide homing to joint in an animal) [NQR peptide, joint-homing phage-derived synthetic peptide]",effect on endothelial cell tube formation,HUVECs,inhibited tube formation
same,binding of fluorescein-labeled peptide to joint-derived endothelial cells,"[1]; CD31-expressing endothelial cells, arthritic rat joint",bound specifically to the joint-derived
same,colocalization of peptide with CD31,[1]; joint-derived endothelial cells,colocalized with CD31
same,effect on VEGF-induced pAkt,Akt,had no effect on pAkt
